Our source for the LC retention time values is the RepoRT retention time repository.

Structures can show the parent of a compound that is named as a salt.

The data set in a line: RP, Waters CORTECS UPLC C18, 100 × 2.1 mm, 1.6 µm, 40 °C, 0.4 mL/min, estimated dead time 0.55 min; A: water + 0.1% formic acid, pH 3; B: acetonitrile + 0.1% formic acid, pH 3; gradient (min/%B) 0/5 1.12/5 6.41/99.5 10.01/99.5. As to conditions: stereoisomer not certain.

Turning to `COC(=O)CCCC(=O)O` [MONOMETHYLGLUTARATE], the LC retention time is 2.47 min.

With `CCCCCC=CC(=O)OC(CC(=O)[O-])C[N+](C)(C)C` [trans-2-Octenoyl-L-carnitine], the LC retention time was 3.56 min.

Turning to `COC(=O)c1ccccc1S(=O)(=O)NC(=O)Nc1nc(C)nc(OC)n1` [Metsulfuron-methyl], the LC retention time was 3.99 min.

In the case of `CCc1ccc(C(=O)NN(C(=O)c2cc(C)cc(C)c2)C(C)(C)C)cc1` [Tebufenozide], the LC retention time is 5.33 min.

As for `CC(CC(=O)[O-])CC(=O)OC(CC(=O)O)C[N+](C)(C)C` (stereo not drawn) [3-Methylglutarylcarnitine], the LC retention time was 2.25 min.

Take `CC(C)=CC(=O)NCC(=O)O` [3-Methylcrotonyl Glycine]: the LC retention time is 2.29 min.

Consider `CC(CCCC(C)C1CCC2C3C(O)CC4=CC(=O)CCC4(C)C3CCC12C)C(=O)O` (stereo not drawn) [7-Hydroxy-3-oxo-Cholest-4-en-26-oic Acid], for which the LC retention time was 5.53 min.

As to `CCCC[n+]1cccc(S(=O)(=O)[O-])c1` [C4-APS], the LC retention time was 1.11 min.

For `N#CCNC(=O)c1cnccc1C(F)(F)F` [Flonicamid], the LC retention time was 2.88 min.

For the compound `O=C(Nc1ccc(F)cc1)c1cccc(Oc2cccc(C(F)(F)F)c2)n1` [Picolinafen], the LC retention time was 5.93 min.

On to `CCNc1nc(Cl)nc(N(CC)CC)n1` [Trietazin], for which the LC retention time was 5.23 min.

As to `CC1NC(=O)NC1CCCCCC(=O)O` (stereo not drawn) [DETHIOBIOTIN], the LC retention time was 2.9 min.

As for `COc1cc(C)c(C(=O)c2c(OC)ccc(Br)c2C)c(OC)c1OC` [Metrafenone], the LC retention time is 4.52 min.

Take `CCCOCC(=Nc1ccc(Cl)cc1C(F)(F)F)n1ccnc1` [Triflumizol]: the LC retention time was 5.16 min.

Turning to `CC1(C)CCC(Cc2ccc(Cl)cc2)C1(O)Cn1cncn1` (stereo not drawn) [Metconazole], the LC retention time was 5.24 min.

Consider `O=C(O)CCCCC(=O)O` [ADIPATE], for which the LC retention time was 2.47 min.

As to `O=C(O)c1ccccn1` [PICOLINATE], the LC retention time is 0.719 min.

For the compound `CNC(=O)ON=C(CSC)C(C)(C)C` [Thiofanox], the LC retention time is 4.76 min.

As to `Cc1nnc(-c2ccccc2)c(=O)n1N` [Metamitron], the LC retention time was 3.09 min.

Take `O=C/C=C/c1ccccc1` [TRANS-CINNAMALDEHYDE]: the LC retention time was 5 min.

For `Cc1ccc(N=c2sccn2C)c(C)c1` [Cymiazol hydrochloride], the LC retention time was 3.22 min.

As for `CCN(Cc1ccc(Cl)nc1)C(=C[N+](=O)[O-])NC` [Nitenpyram], the LC retention time was 2.6 min.

As for `CCCSP(=O)(OCC)Oc1ccc(Br)cc1Cl` (stereo not drawn) [Profenofos], the LC retention time is 5.85 min.

As for `CC#Cc1cc(C)nc(Nc2ccccc2)n1` [Mepanipyrim], the LC retention time is 5.11 min.

For the compound `CC1OC(n2cnc3c(N)ncnc32)C(O)C1O` (stereo not drawn) [5'-DEOXYADENOSINE], the LC retention time is 0.931 min.

As to `CCC(C)C1OC2(C=CC1C)CC1CC(CC=C(C)C(OC3CC(OC)C(OC4CC(OC)C(O)C(C)O4)C(C)O3)C(C)C=CC=C3COC4C(O)C(C)=CC(C(=O)O1)C34O)O2` (stereo not drawn) [Mixture of Avermectin B1a and B1b], the LC retention time is 6.5 min.

As to `CC(=O)NC(Cc1c[nH]c2ccccc12)C(=O)O` (stereo not drawn) [N-ACETYLTRYPTOPHAN], the LC retention time is 3.14 min.

Take `CCCN(CCOc1c(Cl)cc(Cl)cc1Cl)C(=O)n1ccnc1` [Prochloraz]: the LC retention time was 4.73 min.

For the compound `O=c1[nH]c(=O)c2[nH]c(=O)[nH]c2[nH]1` [URATE], the LC retention time was 0.727 min.

`CCCCCC(=O)OC(CC(=O)[O-])C[N+](C)(C)C` [Hexanoyl-L-carnitine]: the LC retention time is 3.05 min.

Consider `CCCCCCC=CC#CCCCCCCCC(=O)O` [Ximeninic Acid], for which the LC retention time is 6.4 min.

As to `CC(C)=CCCC(C)=CCCC(C)=CCCC=C(C)CCC=C(C)CCC=C(C)C` [SQUALENE], the LC retention time is 6.18 min.

Regarding `CCCCCCCCCC[n+]1cccc(S(=O)(=O)[O-])c1` [C10-APS], the LC retention time was 4.29 min.

As to `O=C(NC(=O)c1ccccc1Cl)Nc1ccc(OC(F)(F)F)cc1` [Triflumuron], the LC retention time is 5.42 min.

In the case of `O=C(Nc1ccccc1-c1ccc(Cl)cc1)c1cccnc1Cl` [Boscalid], the LC retention time is 4.99 min.

As to `CCCCCCCCCCCCCCCC[n+]1cccc(S(=O)(=O)[O-])c1` [C16-APS], the LC retention time is 6.07 min.

As to `COP(N)(=O)SC` (stereo not drawn) [Methamidophos], the LC retention time was 0.974 min.

In the case of `C[C@H](CCC(=O)O)[C@H]1CC[C@H]2[C@@H]3[C@H](O)C[C@@H]4C[C@H](O)CC[C@]4(C)[C@H]3CC(=O)[C@]12C` [(3ALPHA,5BETA,7ALPHA)-3,7-DIHYDROXY-12-OXOCHOLAN-24-OIC ACID], the LC retention time is 4.24 min.

In the case of `Cc1ccc(-c2c(Cl)nc(C#N)n2S(=O)(=O)N(C)C)cc1` [Cyazofamid], the LC retention time is 5.39 min.

Take `O=CCc1c[nH]c2ccccc12` [INDOLEACETALDEHYDE]: the LC retention time is 2.55 min.

On to `CC(CCC(=O)O)C1CCC2C3CCC4CC(O)CCC4(C)C3CC(O)C12C` (stereo not drawn) [Deoxycholic acid], for which the LC retention time was 5.22 min.

Turning to `CCCCCCCCCC(=O)OC(CC(=O)[O-])C[N+](C)(C)C` [Decanoyl-L-carnitine], the LC retention time is 4.21 min.

As for `CC1(C)COC(=O)C1O` (stereo not drawn) [PANTOLACTONE], the LC retention time was 3.31 min.

Turning to `O=C(O)c1cc(=O)c2ccccc2[nH]1` [KYNURENATE], the LC retention time is 2.35 min.

Consider `O=C(O)Cc1c[nH]c2ccccc12` [3-Indoleacetic acid], for which the LC retention time is 3.4 min.

For the compound `CC(CCC(=O)NCC(=O)O)C1CCC2C3CCC4CC(O)CCC4(C)C3CC(O)C12C` (stereo not drawn) [Glycodeoxycholic acid], the LC retention time was 4.66 min.

As to `O=C(NC(=O)c1c(F)cccc1F)Nc1cc(Cl)c(OC(F)(F)C(F)C(F)(F)F)cc1Cl` (stereo not drawn) [Lufenuron], the LC retention time is 5.91 min.

Turning to `CC12CCC(=O)C=C1CCC1C2CCC2(C)C1CCC2(O)C(=O)CO` (stereo not drawn) [CORTEXOLONE], the LC retention time is 4.05 min.

Turning to `CC1(C)CN=C(NN=C(C=Cc2ccc(C(F)(F)F)cc2)C=Cc2ccc(C(F)(F)F)cc2)NC1` [Hydramethylnon (Amdro)], the LC retention time is 5.14 min.

As to `CCOP(=S)(OCC)SCn1c(=O)oc2cc(Cl)ccc21` [Phosalone], the LC retention time is 5.7 min.

For the compound `CC(C1CC1)C(O)(Cn1cncn1)c1ccc(Cl)cc1` (stereo not drawn) [Cyproconazole], the LC retention time was 4.78 min.

As for `O=Cc1c[nH]c2ccccc12` [Indole-3-carboxaldehyde], the LC retention time was 3.28 min.

Regarding `COCC(=O)N(c1c(C)cccc1C)C(C)C(=O)OC` (stereo not drawn) [Metalaxyl], the LC retention time was 4.33 min.

In the case of `CCCCc1c(C)nc(NCC)[nH]c1=O` [Ethirimol], the LC retention time is 3.01 min.

For `O=C(O)C(O)Cc1c[nH]c2ccccc12` (racemic) [DL-Indole-3-lactic acid], the LC retention time was 3.13 min.

For the compound `COC=C(C(=O)OC)c1ccccc1Oc1cc(Oc2ccccc2C#N)ncn1` [Azoxystrobin], the LC retention time was 4.91 min.

In the case of `CC(=O)OCC(=O)C1CCC2C3CCC4=CC(=O)CCC4(C)C3CCC12C` (stereo not drawn) [DEOXYCORTICOSTERONE ACETATE], the LC retention time is 5.2 min.

With `Cc1nc(N(C)C)nc(OC(=O)N(C)C)c1C` [Pirimicarb], the LC retention time was 3.06 min.

For `C#CCN1C(=O)COc2cc(F)c(N3C(=O)C4=C(CCCC4)C3=O)cc21` [Flumioxazin], the LC retention time is 4.77 min.

`CSCC1OC(n2cnc3c(N)ncnc32)C(O)C1O` (stereo not drawn) [METHYLTHIOADENOSINE]: the LC retention time was 2.19 min.

As for `N#CN=C1SCCN1Cc1ccc(Cl)nc1` [Thiacloprid], the LC retention time was 3.6 min.

In the case of `CCOC(=O)CC(SP(=O)(OC)OC)C(=O)OCC` (stereo not drawn) [Malaoxon], the LC retention time was 4.05 min.

Consider `CCNc1nc(NC(C)CC)nc(OC)n1` (stereo not drawn) [Secbumeton], for which the LC retention time is 3.53 min.

Take `CC=C(C)C(=O)OC(CC(=O)[O-])C[N+](C)(C)C` [Tigloyl-L-carnitine]: the LC retention time was 2.43 min.

On to `NC(=O)[C@@H](N)Cc1c[nH]c2ccccc12` [L-TRYPTOPHANAMIDE], for which the LC retention time is 1.79 min.

Turning to `Cc1cc(C(F)(C(F)(F)F)C(F)(F)F)ccc1NC(=O)c1cccc(I)c1C(=O)NC(C)(C)CS(C)(=O)=O` [Flubendiamide], the LC retention time is 5.35 min.

For the compound `CCCCC[n+]1cccc(S(=O)(=O)[O-])c1` [C5-APS], the LC retention time was 2.31 min.

For the compound `COc1cccc(C(=O)NN(C(=O)c2cc(C)cc(C)c2)C(C)(C)C)c1C` [Methoxyfenozide], the LC retention time is 5.09 min.

Consider `CCOC(=O)OC1=C(c2cc(C)ccc2C)C(=O)NC12CCC(OC)CC2` (stereo not drawn) [Spirotetramat], for which the LC retention time was 4.8 min.

`Cc1cc2nc[nH]c2cc1C` [5,6 DIMETHYLBENZIMIDAZOLE]: the LC retention time was 2.64 min.

For the compound `Cc1ccn2nc(S(=O)(=O)Nc3c(F)cccc3F)nc2n1` [Flumetsulam], the LC retention time is 3.43 min.

For the compound `COCCN(C(=O)CCl)c1c(C)cccc1C` [Dimethachlor], the LC retention time is 4.55 min.

Regarding `CON=C(C(=O)OC)c1ccccc1COc1ccccc1C` [Kresoxim-methyl], the LC retention time is 5.42 min.

For `CCOP(=S)(OCC)ON=C(C#N)c1ccccc1` [Phoxim], the LC retention time is 5.44 min.

With `Nc1nc2c(ncn2C2OC(CO)C(O)C2O)c(=O)[nH]1` (stereo not drawn) [GUANOSINE], the LC retention time was 0.76 min.

On to `O=C(NC(=O)c1c(F)cccc1F)Nc1ccc(OC(F)(F)C(F)OC(F)(F)F)c(Cl)c1` (stereo not drawn) [Novaluron], for which the LC retention time was 5.71 min.

For the compound `O=c1[nH]c2c(c(=O)n1C1CCCCC1)CCC2` [Lenacil], the LC retention time is 3.96 min.

As for `CN(C)C(=O)Nc1cccc(C(F)(F)F)c1` [Fluometuron], the LC retention time was 4.2 min.
